Assay results published in ChEMBL document CHEMBL1201862, “PubChem BioAssay data set” (2004).
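1) Cells in 96-well plates. 2) Compound, 48 h, 5 concentrations. 3) Linear interpolation between surrounding doses. 4) Unreached endpoint = highest concentration. The concentration for 50% growth inhibition is given as GI50.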 Active and inactive are the calls of the source. Cut-off read from the data, not from the text of the source: active = GI50 up to about 1.1 µM and inactive = higher.

Tests used:
Test in all cases: NCI anticancer screen, dose series, 48 h
UACC-257 = system: UACC-257
ACHN = system: ACHN
NCI-H226 = system: NCI-H226
K562 = system: K562
SN12C = system: SN12C
LOX IMVI = system: LOX IMVI
TK-10 = system: TK-10
EKVX = system: EKVX
HT-29 = system: HT-29
SF-539 = system: SF-539
UACC-62 = system: UACC-62
SW-620 = system: SW-620
RXF 393 = system: RXF 393
KM12 = system: KM12
OVCAR-8 = system: OVCAR-8
786-0 = system: 786-0
A498 = system: A498
SK-MEL-5 = system: SK-MEL-5
HOP-92 = system: HOP-92
SK-MEL-28 = system: SK-MEL-28

Measured: GI50

CC(=O)c1ccc(NC(=O)C(=O)CC(=O)c2sc(-n3nc(-c4ccccc4)cc3-c3ccccc3)nc2C)cc1
inactive: UACC-257 > 100 µM | ACHN > 100 µM | NCI-H226 > 100 µM | K562 > 100 µM | SN12C > 100 µM | LOX IMVI > 100 µM | TK-10 > 100 µM | EKVX > 100 µM | HT-29 > 100 µM | SF-539 > 100 µM | UACC-62 > 100 µM | SW-620 > 100 µM | RXF 393 > 100 µM | KM12 > 100 µM | OVCAR-8 > 100 µM | 786-0 > 100 µM | A498 > 100 µM

O=c1cc(/C=C/c2ccccc2)c2ccc(O/C(=C\c3ccccc3)c3nc4ccccc4c(=O)o3)cc2o1
inactive: UACC-257 28.9 µM | SK-MEL-5 16.3 µM | ACHN 18.5 µM | K562 10.8 µM | SN12C 26.3 µM | LOX IMVI 31.1 µM | TK-10 51.4 µM | EKVX 23.7 µM | HOP-92 15.7 µM | SF-539 23.3 µM | UACC-62 24.7 µM | SW-620 37.5 µM | SK-MEL-28 13.8 µM | KM12 15.7 µM | OVCAR-8 28.2 µM | 786-0 44.3 µM | A498 34.1 µM

CCOC(=O)NC(=O)c1cn(CCCCCOC(=O)NCCCCCCNC(=O)OCCCCCn2cc(C(=O)NC(=O)OCC)c(=O)[nH]c2=O)c(=O)[nH]c1=O
inactive: UACC-257 > 100 µM | SK-MEL-5 > 100 µM | ACHN > 100 µM | NCI-H226 > 100 µM | K562 > 100 µM | SN12C > 100 µM | LOX IMVI > 100 µM | EKVX > 100 µM | HT-29 > 100 µM | SF-539 > 100 µM | UACC-62 > 100 µM | SW-620 > 100 µM | SK-MEL-28 > 100 µM | RXF 393 > 100 µM | KM12 > 100 µM | OVCAR-8 > 100 µM | 786-0 > 100 µM | A498 > 100 µM

NN(CC(=O)O)CC(=O)O
inactive: UACC-257 > 100 µM | SK-MEL-5 > 100 µM | ACHN > 100 µM | NCI-H226 > 100 µM | K562 > 100 µM | SN12C > 100 µM | LOX IMVI > 100 µM | TK-10 > 100 µM | EKVX > 100 µM | HT-29 > 100 µM | SF-539 > 100 µM | UACC-62 > 100 µM | SW-620 > 100 µM | SK-MEL-28 > 100 µM | KM12 > 100 µM | OVCAR-8 > 100 µM | 786-0 > 100 µM | A498 > 100 µM

Cc1cc2c(c(C(N)=O)c1C)-c1cccc(F)c1C2=O
inactive: UACC-257 > 100 µM | SK-MEL-5 > 100 µM | ACHN > 100 µM | K562 > 100 µM | SN12C > 100 µM | LOX IMVI > 100 µM | TK-10 > 100 µM | EKVX > 100 µM | HOP-92 > 100 µM | HT-29 > 100 µM | SF-539 > 100 µM | UACC-62 79.6 µM | SW-620 > 100 µM | SK-MEL-28 > 100 µM | KM12 > 100 µM | OVCAR-8 > 100 µM | 786-0 > 100 µM | A498 45.5 µM

Cc1nc2nn(Cc3ccccc3)cc2c(=O)o1
inactive: UACC-257 > 100 µM | SK-MEL-5 > 100 µM | ACHN > 100 µM | NCI-H226 > 100 µM | K562 > 100 µM | SN12C > 100 µM | LOX IMVI > 100 µM | TK-10 > 100 µM | EKVX > 100 µM | HT-29 > 100 µM | SF-539 > 100 µM | UACC-62 > 100 µM | SW-620 > 100 µM | RXF 393 44 µM | KM12 > 100 µM | OVCAR-8 > 100 µM | 786-0 > 100 µM | A498 > 100 µM

COP1(=O)Oc2ccccc2C(=O)C(C(F)(F)F)(C(F)(F)F)O1 (stereo not drawn)
inactive: UACC-257 > 100 µM | SK-MEL-5 > 100 µM | ACHN > 100 µM | K562 > 100 µM | SN12C > 100 µM | LOX IMVI > 100 µM | TK-10 > 100 µM | EKVX > 100 µM | HOP-92 56.8 µM | HT-29 > 100 µM | SF-539 > 100 µM | UACC-62 > 100 µM | SW-620 > 100 µM | SK-MEL-28 > 100 µM | RXF 393 > 100 µM | KM12 > 100 µM | OVCAR-8 > 100 µM | 786-0 > 100 µM | A498 > 100 µM

CC1c2c(Cl)nc3ccccc3c2Oc2c1c(Cl)nc1ccccc21
inactive: UACC-257 > 100 µM | SK-MEL-5 30.3 µM | ACHN 51.5 µM | K562 46.8 µM | LOX IMVI > 100 µM | TK-10 47.3 µM | EKVX 37.6 µM | HOP-92 46.5 µM | HT-29 82.8 µM | SF-539 > 100 µM | SW-620 99.5 µM | SK-MEL-28 > 100 µM | RXF 393 41.3 µM | KM12 > 100 µM | OVCAR-8 85.7 µM | 786-0 49.1 µM | A498 > 100 µM

C[C@]12CC[C@H](OC3CCCCO3)CC1=CC[C@@H]1C2CC[C@]2(C)/C(=N/O)CCC12 (stereo partly drawn)
inactive: UACC-257 30.3 µM | SK-MEL-5 88.9 µM | ACHN 18.2 µM | K562 14.4 µM | SN12C 14.2 µM | LOX IMVI 13.8 µM | TK-10 30.5 µM | EKVX 23.7 µM | HOP-92 23.9 µM | HT-29 12.3 µM | SF-539 47.1 µM | UACC-62 42.7 µM | SW-620 36.9 µM | SK-MEL-28 21.3 µM | RXF 393 23.2 µM | KM12 15.6 µM | OVCAR-8 19.2 µM | 786-0 20.4 µM | A498 > 100 µM

CC1=C(/C=C/C(C)=C/C=C/C(C)=C/C=C/C=C(C)/C=C/C=C(C)/C=C/C=C(C)/C=C/C=C(\C)C(=O)O)C(C)(C)CCC1
inactive: UACC-257 > 100 µM | SK-MEL-5 > 100 µM | ACHN > 100 µM | NCI-H226 > 100 µM | K562 > 100 µM | SN12C > 100 µM | TK-10 > 100 µM | EKVX > 100 µM | HT-29 > 100 µM | SF-539 > 100 µM | UACC-62 > 100 µM | SW-620 > 100 µM | SK-MEL-28 > 100 µM | RXF 393 > 100 µM | KM12 > 100 µM | OVCAR-8 > 100 µM | 786-0 > 100 µM | A498 > 100 µM

O=C(O)CCCc1nc2c(n1Cc1ccccc1)C(=O)c1ccccc1C2=O
inactive: UACC-257 25 µM | ACHN 45.2 µM | K562 42.7 µM | SN12C 36.9 µM | LOX IMVI 40.4 µM | TK-10 > 100 µM | EKVX 31.6 µM | HOP-92 48.9 µM | SF-539 69.8 µM | UACC-62 17.2 µM | SW-620 40.6 µM | SK-MEL-28 > 100 µM | KM12 43.7 µM | OVCAR-8 36.6 µM | 786-0 > 100 µM | A498 34.4 µM

CCOC(=O)c1nnc2c(C(=O)OCC)c3ccccc3n2c1N
inactive: UACC-257 2.09 µM | SK-MEL-5 5.52 µM | ACHN 7.19 µM | K562 11.2 µM | SN12C 6.67 µM | LOX IMVI 5.96 µM | TK-10 7.91 µM | EKVX 25.8 µM | HT-29 22.8 µM | SF-539 5.66 µM | UACC-62 2.43 µM | SW-620 8.26 µM | SK-MEL-28 5.85 µM | RXF 393 > 100 µM | KM12 4.43 µM | OVCAR-8 5.16 µM | 786-0 67 µM | A498 4.85 µM

Brc1ccc2c(c1)C1C(CO2)C(c2ccccc2)=NN1c1ccccc1 (stereo not drawn)
inactive: UACC-257 > 100 µM | ACHN > 100 µM | K562 78.9 µM | LOX IMVI > 100 µM | TK-10 > 100 µM | EKVX > 100 µM | HOP-92 57.3 µM | HT-29 54.2 µM | SW-620 > 100 µM | SK-MEL-28 > 100 µM | RXF 393 > 100 µM | KM12 > 100 µM | OVCAR-8 > 100 µM | 786-0 > 100 µM | A498 > 100 µM

O=C1COc2cccnc2N1CCCCO
inactive: UACC-257 > 100 µM | SK-MEL-5 > 100 µM | ACHN > 100 µM | SN12C > 100 µM | LOX IMVI > 100 µM | TK-10 > 100 µM | EKVX > 100 µM | HOP-92 > 100 µM | SF-539 > 100 µM | UACC-62 > 100 µM | SW-620 > 100 µM | SK-MEL-28 > 100 µM | RXF 393 > 100 µM | KM12 > 100 µM | 786-0 > 100 µM | A498 > 100 µM

Cc1ccc(-c2cc(=O)c3cc(C)c(C)c(C(=O)O)c3o2)cc1C
inactive: UACC-257 > 100 µM | SK-MEL-5 > 100 µM | ACHN > 100 µM | NCI-H226 > 100 µM | K562 > 100 µM | SN12C > 100 µM | LOX IMVI > 100 µM | TK-10 > 100 µM | EKVX > 100 µM | HOP-92 > 100 µM | HT-29 > 100 µM | SF-539 > 100 µM | UACC-62 > 100 µM | SW-620 > 100 µM | SK-MEL-28 > 100 µM | RXF 393 > 100 µM | KM12 > 100 µM | OVCAR-8 > 100 µM | 786-0 > 100 µM
